Reference: patent US20090124606A1, “Composition for Treatment of Psychosis” (priority 2005, published 2009)

Assays:
[1] = target: Dopamine D2 (Homo sapiens, UniProt P14416); conditions: read-out: Receptor Affinity (Ki); cited from earlier work
[2] = target: 5-HT2A (Homo sapiens, UniProt P28223); conditions: read-out: Receptor Affinity (Ki); cited from earlier work
[3] = target: 5-HT2C (Homo sapiens, UniProt P28335); conditions: read-out: Receptor Affinity (Ki); cited from earlier work
[4] = system: NMRI mice; assay: Inhibition of catalepsy generated by haloperidol (45° inclined grid); format: in vivo
Method: Experiments were elaborated on 20-25 g weight NMRI mice. Groups of 10 mice were treated intraperitoneally with 15 mg/kg of haloperidol and carrier agent. Deramciclane (and carriers) were administered orally in different doses 60 minutes later. After a subsequent 60 minutes period mice were placed to a grid which has an inclination angle of 45°. In case of the animals were motionless for more than 30 seconds on the grid the events were seen as catalepsy. The procedure was repeated in every 30 minutes for 3 hours.
The effects are shown by percentage of changes compared to control group.

[5] = deramciclane alone; cited from earlier work

Sequence of 5-HT2A (P28223 whole entry, species assumed): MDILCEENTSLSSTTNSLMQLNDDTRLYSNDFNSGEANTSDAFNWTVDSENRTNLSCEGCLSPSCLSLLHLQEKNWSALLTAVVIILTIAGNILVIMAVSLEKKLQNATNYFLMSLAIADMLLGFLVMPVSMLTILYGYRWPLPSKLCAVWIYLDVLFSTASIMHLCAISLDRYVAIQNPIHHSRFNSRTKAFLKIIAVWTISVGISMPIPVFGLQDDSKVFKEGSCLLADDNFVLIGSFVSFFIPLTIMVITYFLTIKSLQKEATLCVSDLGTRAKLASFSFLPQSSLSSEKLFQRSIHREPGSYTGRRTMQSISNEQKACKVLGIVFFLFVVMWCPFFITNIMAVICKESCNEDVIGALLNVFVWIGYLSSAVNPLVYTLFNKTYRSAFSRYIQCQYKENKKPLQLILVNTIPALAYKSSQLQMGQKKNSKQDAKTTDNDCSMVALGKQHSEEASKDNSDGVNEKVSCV
Sequence of 5-HT2C (P28335 33-458, species assumed): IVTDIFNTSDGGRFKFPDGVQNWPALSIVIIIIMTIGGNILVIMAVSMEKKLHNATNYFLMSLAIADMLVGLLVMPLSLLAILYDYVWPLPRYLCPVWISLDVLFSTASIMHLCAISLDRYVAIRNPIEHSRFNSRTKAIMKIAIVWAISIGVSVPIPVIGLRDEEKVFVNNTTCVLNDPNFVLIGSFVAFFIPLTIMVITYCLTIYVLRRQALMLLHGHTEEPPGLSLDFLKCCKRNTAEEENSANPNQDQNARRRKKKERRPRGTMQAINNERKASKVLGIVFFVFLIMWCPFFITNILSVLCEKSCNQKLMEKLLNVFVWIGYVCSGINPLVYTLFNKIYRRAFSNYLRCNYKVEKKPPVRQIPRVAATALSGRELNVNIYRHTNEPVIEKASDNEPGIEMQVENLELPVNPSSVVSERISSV
Sequence of Dopamine D2 (P14416 whole entry): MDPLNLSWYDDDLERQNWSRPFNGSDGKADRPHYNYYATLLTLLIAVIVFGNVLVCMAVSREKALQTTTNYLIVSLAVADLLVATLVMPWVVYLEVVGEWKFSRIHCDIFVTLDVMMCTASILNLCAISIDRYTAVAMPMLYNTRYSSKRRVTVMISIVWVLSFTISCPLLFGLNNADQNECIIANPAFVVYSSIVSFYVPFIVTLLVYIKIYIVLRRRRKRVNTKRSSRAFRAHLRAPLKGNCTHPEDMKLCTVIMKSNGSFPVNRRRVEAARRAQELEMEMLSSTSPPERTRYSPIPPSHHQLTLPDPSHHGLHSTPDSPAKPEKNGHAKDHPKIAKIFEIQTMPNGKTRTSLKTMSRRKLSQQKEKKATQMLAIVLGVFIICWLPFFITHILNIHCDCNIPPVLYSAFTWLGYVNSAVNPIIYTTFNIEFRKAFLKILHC

Structure (SMILES) | Ki [1] [nM] | Ki [2] [nM] | Ki [3] [nM] | Catalepsy (average ± SE)/10 animals ([4]; deramciclane 20 mg/kg po. + haloperidol 15 mg/kg ip., p < 0.05 vs haloperidol) | Catalepsy (average ± SE)/10 animals ([4]; deramciclane 40 mg/kg po. + haloperidol 15 mg/kg ip., p < 0.05 vs haloperidol) | Catalepsy (average ± SE)/10 animals ([4]; deramciclane 80 mg/kg po. + haloperidol 15 mg/kg ip., p < 0.05 vs haloperidol) | Inhibition of catalepsy generated by haloperidol (in words) ([4]; deramciclane 20-80 mg/kg po., haloperidol 15 mg/kg ip.) | Catalepsy caused by the compound by itself (in words) [5] | Catalepsy (average ± SE)/10 animals ([4]; haloperidol 15 mg/kg ip. alone (plus carrier))
CN(C)CCO[C@]1(c2ccccc2)C[C@H]2CC[C@]1(C)C2(C)C [Deramciclane, (1R,2S,4R)-(−)-2-[N,N-(dimethylamino-ethoxy)]-2-phenyl-1,7,7-trimethyl-biciklo[2.2.1]heptane] | 113 | 11 | 27 | 6.5 ± 0.7 /10 animals | 4.7 ± 1.3 /10 animals | 3.5 ± 1.5 /10 animals | inhibits the catalepsy generated by haloperidol in a dose dependent way | does not cause catalepsy by itself | 
O=C(CCCN1CCC(O)(c2ccc(Cl)cc2)CC1)c1ccc(F)cc1 [Haloperoidol, haloperidol, reference compound] |  |  |  |  |  |  |  |  | 9.3 ± 0.4 /10 animals
